The target of this experiment is GLP-1R (Homo sapiens, UniProt P43220). The experiment can be described thus: GLP-1R agonist cAMP stimulation assay (HTRF cAMP). The experiment is classed as cell-based. Conditions: HEK293 cell line expressing GLP-1 target; HTRF cAMP agonist mode, 30 min at RT. In outline: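 Read-out was HTRF (665/615 ratio), interpolated onto a cAMP standard curve and normalised to DMSO (0%) and maximal GLP-1(7-37) reference (100%) wells. Assay: GLP-1R cells at 1.0×E5/mL incubated with compound dilution series (3-fold, 10 points) for 30 min at room temperature before 60 min detection.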
GLP-1R, sequence (P43220 24-463): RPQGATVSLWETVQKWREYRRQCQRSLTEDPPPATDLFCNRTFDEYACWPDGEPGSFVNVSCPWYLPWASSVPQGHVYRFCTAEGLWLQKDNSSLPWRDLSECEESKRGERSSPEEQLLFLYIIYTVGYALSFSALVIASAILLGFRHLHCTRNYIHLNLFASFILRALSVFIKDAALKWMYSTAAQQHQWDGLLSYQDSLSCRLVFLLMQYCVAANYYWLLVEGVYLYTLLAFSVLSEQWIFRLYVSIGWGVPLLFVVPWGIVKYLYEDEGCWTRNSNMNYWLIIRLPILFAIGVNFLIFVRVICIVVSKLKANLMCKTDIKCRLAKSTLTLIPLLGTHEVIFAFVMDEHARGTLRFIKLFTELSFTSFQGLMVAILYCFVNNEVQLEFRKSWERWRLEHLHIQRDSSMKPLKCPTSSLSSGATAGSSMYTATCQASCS
Regarding `O=C(Nc1ccc2nc(CN3CC=C(c4cccc(OCc5ccc(Cl)cc5F)n4)CC3)n(C[C@@H]3CCO3)c2c1)c1cc(C(F)(F)F)c2c(c1)C1(CC1)C(=O)N2` [Compound 288], the EC50 is 3.87 nM. As for `Cc1n[nH]c2c(F)cc(C(=O)Nc3ccc4nc(CN5CC=C(c6cccc(OCc7ccc(C#N)cc7F)n6)CC5)n(CC5CCO5)c4c3)cc12` (stereo not drawn) [Compound 289], a half-maximal effect (EC50) was put at 0.99 nM. In turn, `Cc1n[nH]c2ccc(C(=O)Nc3ccc4nc(CN5CC=C(c6cccc(OCc7ccc(C#N)cc7F)n6)CC5)n(CC5CCO5)c4c3)cc12` (stereo not drawn) [Compound 290] showed an EC50 of 1.2 nM. As for `Cc1n[nH]c2c(C)cc(C(=O)Nc3ccc4nc(CN5CC=C(c6cccc(OCc7ccc(C#N)cc7F)n6)CC5)n(CC5CCO5)c4c3)cc12` (stereo not drawn) [Compound 291], the EC50 came out at 0.75 nM. For `CC1(c2ccc(Cl)cc2F)Oc2cccc(C3=CCN(Cc4nc5cc(C(=O)Nc6ccc7[nH]nc(F)c7c6)ccc5n4CC4CCO4)CC3)c2O1` (stereo not drawn) [Compound 292], the EC50 was 8.73 nM. To `Cc1n[nH]c2c(Cl)cc(NC(=O)c3ccc4c(c3)nc(CN3CC=C(c5cccc6c5OC(C)(c5ccc(Cl)cc5F)O6)CC3)n4CC3CCO3)cc12` (stereo not drawn) [Compound 293] belongs 0.99 nM; to `CC1(c2ccc(Cl)cc2F)Oc2cccc(C3=CCN(Cc4nc5cc(C(=O)Nc6ccc7[nH]nc(C8CC8)c7c6)ccc5n4CC4CCO4)CC3)c2O1` (stereo not drawn) [Compound 294], 1.02 nM. Compound `Cc1n[nH]c2c(C(F)(F)F)cc(NC(=O)c3ccc4c(c3)nc(CN3CC=C(c5cccc6c5OC(C)(c5ccc(Cl)cc5F)O6)CC3)n4CC3CCO3)cc12` (stereo not drawn) [Compound 295] registered an EC50 of 2.19 nM. On to `Cc1cc(NC(=O)c2ccc3c(c2)nc(CN2CC=C(c4cccc5c4OC(C)(c4ccc(Cl)cc4F)O5)CC2)n3CC2CCO2)cc2c(C(F)(F)F)n[nH]c12` (stereo not drawn) [Compound 296], for which a half-maximal response (EC50) required 1.92 nM.

In turn, `CC1(c2ccc(Cl)cc2F)Oc2cccc(C3=CCN(Cc4nc5cc(C(=O)Nc6ccc7[nH]nc(C(F)(F)F)c7c6)ccc5n4CC4CCO4)CC3)c2O1` (stereo not drawn) [Compound 297] had an EC50 of 3.65 nM. `Cc1n[nH]c2c(F)cc(NC(=O)c3ccc4c(c3)nc(CN3CC=C(c5cccc6c5O[C@@](C)(c5ccc(C#N)cc5F)O6)CC3)n4CC3CCO3)cc12` (stereo partly drawn) [Compound 298] had an EC50 of 0.37 nM. On to `Cc1n[nH]c2c(C)cc(NC(=O)c3ccc4c(c3)nc(CN3CC=C(c5cccc6c5OC(C)(c5ccc(C#N)cc5F)O6)CC3)n4CC3CCO3)cc12` (stereo not drawn) [Compound 299], for which the midpoint of the response, the EC50, lay at 0.16 nM. For the compound `Cc1n[nH]c2c(F)cc(NC(=O)c3ccc4c(c3)nc(CN3CC=C(c5cccc6c5O[C@](C)(c5ccc(C#N)cc5F)O6)CC3)n4CC3CCO3)cc12` (stereo partly drawn) [Compound 300], the midpoint of the response, the EC50, lay at 0.19 nM. On to `Cc1cc(NC(=O)c2ccc3c(c2)nc(CN2CC=C(c4cccc5c4OC(C)(c4ccc(Cl)cc4F)O5)CC2)n3C[C@@H]2CCO2)cc2c1NC(=O)C21CC1` (stereo partly drawn) [Compound 301], for which the EC50 is 0.18 nM. To `Cc1n[nH]c2c(Cl)cc(NC(=O)c3ccc4c(c3)nc(CN3CC=C(c5cccc6c5OC(C)(c5ccc(Cl)cc5F)O6)C[C@@H]3C)n4CC3CCO3)cc12` (stereo partly drawn) [Compound 302] belongs 1.07 nM; to `Cc1cc(NC(=O)c2ccc3c(c2)nc(CN2CC=C(c4cccc5c4OC(C)(c4ccc(Cl)cc4F)O5)CC2)n3C[C@@H]2CCO2)cc2[nH]c(=O)[nH]c12` (stereo partly drawn) [Compound 303], 0.91 nM. Consider `Cc1n[nH]c2c(F)cc(C(=O)Nc3ccc4c(c3)nc(CN3CC=C(c5cccc6c5OC(C)(c5ccc(Cl)cc5F)O6)CC3)n4CC3CCO3)cc12` (stereo not drawn) [Compound 304], for which a half-maximal effect (EC50) was put at 0.18 nM.

Regarding `Cc1n[nH]c2c(C)cc(C(=O)Nc3ccc4c(c3)nc(CN3CC=C(c5cccc6c5OC(C)(c5ccc(Cl)cc5F)O6)CC3)n4CC3CCO3)cc12` (stereo not drawn) [Compound 305], the EC50 came out at 0.19 nM. Take `Cc1n[nH]c2ccc(C(=O)Nc3ccc4c(c3)nc(CN3CC=C(c5cccc6c5OC(C)(c5ccc(Cl)cc5F)O6)CC3)n4CC3CCO3)cc12` (stereo not drawn) [Compound 306]: a half-maximal effect (EC50) was put at 0.56 nM. `Cc1cc(C(=O)Nc2ccc3c(c2)nc(CN2CC=C(c4cccc5c4OC(C)(c4ccc(Cl)cc4F)O5)CC2)n3C[C@@H]2CCO2)cc2c1NC(=O)C21CC1` (stereo partly drawn) [Compound 307]: the EC50 stood at 0.21 nM. Regarding `Cc1n[nH]c2c(Cl)cc(C(=O)Nc3ccc4c(c3)nc(CN3CC=C(c5cccc6c5OC(C)(c5ccc(Cl)cc5F)O6)CC3)n4CC3CCO3)cc12` (stereo not drawn) [Compound 308], the EC50 was found to be 3.12 nM. As for `Cc1cc(C(=O)Nc2ccc3c(c2)nc(CN2CC=C(c4cccc5c4OC(C)(c4ccc(Cl)cc4F)O5)CC2)n3C[C@@H]2CCO2)cc2[nH]c(=O)[nH]c12` (stereo partly drawn) [Compound 309], the concentration for a half-maximal effect (EC50) was 0.87 nM. In the case of `CCc1n[nH]c2ccc(C(=O)Nc3ccc4c(c3)nc(CN3CC=C(c5cccc6c5OC(C)(c5ccc(C#N)cc5F)O6)CC3)n4CC3CCO3)cc12` (stereo not drawn) [Compound 310], a half-maximal response (EC50) required 0.93 nM. The compound `CC(C)c1n[nH]c2ccc(C(=O)Nc3ccc4c(c3)nc(CN3CC=C(c5cccc6c5OC(C)(c5ccc(C#N)cc5F)O6)CC3)n4CC3CCO3)cc12` (stereo not drawn) [Compound 311] displayed an EC50 of 0.39 nM. In the case of `CC1(c2ccc(C#N)cc2F)Oc2cccc(C3=CCN(Cc4nc5cc(NC(=O)c6ccc7[nH]nc(C8CC8)c7c6)ccc5n4CC4CCO4)CC3)c2O1` (stereo not drawn) [Compound 312], the EC50 was 0.99 nM. As for `Cc1n[nH]c2c(C(F)(F)F)cc(C(=O)Nc3ccc4c(c3)nc(CN3CC=C(c5cccc6c5OC(C)(c5ccc(Cl)cc5F)O6)CC3)n4C[C@@H]3CCO3)cc12` (stereo partly drawn) [Compound 313], the midpoint of the response, the EC50, lay at 1.39 nM. To `CC1(c2ccc(Cl)cc2F)Oc2cccc(C3=CCN(Cc4nc5cc(NC(=O)c6cc(F)c7c(c6)C6(CC6)C(=O)N7)ccc5n4C[C@@H]4CCO4)CC3)c2O1` (stereo partly drawn) [Compound 314] belongs 0.63 nM; to `C=C(C)c1n[nH]c2ccc(C(=O)Nc3ccc4c(c3)nc(CN3CC=C(c5cccc6c5OC(C)(c5ccc(Cl)cc5F)O6)CC3)n4CC3CCO3)cc12` (stereo not drawn) [Compound 315], 1.03 nM. To `Cc1n[nH]c2c(F)cc(C(=O)Nc3ccc4c(c3)nc(Cc3c(F)cc(-c5cccc6c5OC(C)(c5ccc(C#N)cc5F)O6)cc3F)n4CC3CCO3)cc12` (stereo not drawn) [Compound 316] belongs 0.54 nM.

`Cc1n[nH]c2c(C)cc(C(=O)Nc3ccc4c(c3)nc(Cc3ccc(-c5cccc6c5OC(C)(c5ccc(C#N)cc5F)O6)cc3F)n4CC3CCO3)cc12` (stereo not drawn) [Compound 317] yielded a 50% effective concentration (EC50) of 0.32 nM. `Cc1n[nH]c2ccc(C(=O)Nc3ccc4c(c3)nc(Cc3cc(F)c(-c5cccc6c5OC(C)(c5ccc(Cl)cc5F)O6)cc3F)n4CC3CCO3)cc12` (stereo not drawn) [Compound 318] registered an EC50 of 1.53 nM.

With `Cc1cc(C(=O)Nc2ccc3c(c2)nc(Cc2c(F)cc(-c4cccc5c4OC(C)(c4ccc(Cl)cc4F)O5)cc2F)n3C[C@@H]2CCO2)cc2c1NC(=O)C21CC1` (stereo partly drawn) [Compound 319], the concentration giving a half-maximal response (EC50) is 0.43 nM. Regarding `Cc1n[nH]c2c(Cl)cc(C(=O)Nc3ccc4c(c3)nc(Cc3cc(F)c(-c5cccc6c5OC(C)(c5ccc(Cl)cc5F)O6)cc3F)n4CC3CCO3)cc12` (stereo not drawn) [Compound 320], it took 13.7 nM to reach a half-maximal effect (EC50). The value for `Cc1cc(C(=O)Nc2ccc3c(c2)nc(Cc2c(F)cc(-c4cccc5c4OC(C)(c4ccc(Cl)cc4F)O5)cc2F)n3C[C@@H]2CCO2)cc2[nH]c(=O)[nH]c12` (stereo partly drawn) [Compound 321] was 0.94 nM; that for `Cc1n[nH]c2ccc(C(=O)Nc3ccc4c(c3)nc(Cc3ccc(-c5cccc6c5OC(C)(c5ccc(Cl)cc5F)O6)s3)n4C[C@@H]3CCO3)cc12` (stereo partly drawn) [Compound 322] was 31.9 nM; that for `CC(C)c1n[nH]c2ccc(C(=O)Nc3ccc4c(c3)nc(Cc3cc(F)c(-c5cccc6c5OC(C)(c5ccc(C#N)cc5F)O6)cc3F)n4CC3CCO3)cc12` (stereo not drawn) [Compound 323] was 2.73 nM.

`Cc1cc(-c2cccc3c2OC(C)(c2ccc(Cl)cc2F)O3)cc(F)c1Cc1nc2cc(NC(=O)c3ccc4[nH]nc(C5CC5)c4c3)ccc2n1CC1CCO1` (stereo not drawn) [Compound 324] showed an EC50 of 2.95 nM.

Consider `Cc1n[nH]c2c(C(F)(F)F)cc(C(=O)Nc3ccc4c(c3)nc(Cc3ccc(-c5cccc6c5OC(C)(c5ccc(C#N)cc5F)O6)cc3F)n4C[C@@H]3CCO3)cc12` (stereo partly drawn) [Compound 325], for which the midpoint of the response, the EC50, lay at 1.05 nM.

As for `CC1(c2ccc(Cl)cc2F)Oc2cccc(-c3cc(F)c(Cc4nc5cc(NC(=O)c6cc(F)c7c(c6)C(C6CC6)C(=O)N7)ccc5n4C[C@@H]4CCO4)c(F)c3)c2O1` (stereo partly drawn) [Compound 326], the EC50 is 0.64 nM. Turning to `C=C(C)c1n[nH]c2ccc(C(=O)Nc3ccc4c(c3)nc(Cc3c(F)cc(-c5cccc6c5OC(C)(c5ccc(Cl)cc5F)O6)cc3F)n4CC3CCO3)cc12` (stereo not drawn) [Compound 327], the EC50 came to 3.96 nM. Compound `CC1(c2ccc(Cl)cc2F)Oc2cccc(C3=CCN(Cc4nc5cc(C(=O)Nc6ccc7[nH]nc(F)c7c6)ccc5n4CC4CCO4)CC3)c2O1` (stereo not drawn) [Compound 328] had an EC50 of 12.7 nM. The value for `Cc1n[nH]c2c(Cl)cc(NC(=O)c3ccc4c(c3)nc(CN3CC=C(c5cccc6c5O[C@@](C)(c5ccc(Cl)cc5F)O6)C[C@@H]3C)n4CC3CCO3)cc12` (stereo partly drawn) [Compound 329] was 1.66 nM; that for `CC1(c2ccc(Cl)cc2F)Oc2cccc(C3=CCN(Cc4nc5cc(C(=O)Nc6ccc7[nH]nc(C8CC8)c7c6)ccc5n4CC4CCO4)CC3)c2O1` (stereo not drawn) [Compound 330] was 0.88 nM. In turn, `Cc1n[nH]c2c(C(F)(F)F)cc(NC(=O)c3ccc4c(c3)nc(CN3CCC(c5cccc6c5OC(C)(c5ccc(Cl)cc5F)O6)CC3)n4CC3CCO3)cc12` (stereo not drawn) [Compound 331] displayed an EC50 of 1.27 nM. Compound `Cc1cc(NC(=O)c2ccc3c(c2)nc(CN2CCC(c4cccc5c4OC(C)(c4ccc(Cl)cc4F)O5)CC2)n3CC2CCO2)cc2c(C(F)(F)F)n[nH]c12` (stereo not drawn) [Compound 332] returned an EC50 of 1.58 nM. `CC1(c2ccc(Cl)cc2F)Oc2cccc(C3CCN(Cc4nc5cc(C(=O)Nc6ccc7[nH]nc(C(F)(F)F)c7c6)ccc5n4CC4CCO4)CC3)c2O1` (stereo not drawn) [Compound 333] had an EC50 of 2.19 nM.

On to `Cc1n[nH]c2ccc(NC(=O)c3ccc4c(c3)nc(CN3CCC(c5cccc6c5OC(C)(c5ccc(Cl)cc5F)O6)CC3)n4CC3CCO3)cc12` (stereo not drawn) [Compound 336], for which a half-maximal effect (EC50) was put at 1.03 nM.

`Cc1cc(NC(=O)c2ccc3c(c2)nc(CN2CCC(c4cccc5c4OC(C)(c4ccc(Cl)cc4F)O5)CC2)n3C[C@@H]2CCO2)cc2c1NC(=O)C21CC1` (stereo partly drawn) [Compound 337] gave a concentration giving a half-maximal response (EC50) of 0.45 nM.
